Values joined by “and” are separate entries in the source; they are usually repeats but may differ in a detail not shown here. Equal values may be shown once.
Legend:
[1] = xn = mol fraction of the nth substance listed; settings: 101 kPa, Liquid, Vibrating tube method
[2] = excess molar enthalpy (molar enthalpy of mixing); xn = mol fraction of the nth substance listed; settings: 101 kPa, Liquid
[3] = 101 kPa, Liquid, Vibrating tube method

OCC(F)(F)F [2,2,2-trifluoroethanol] + CCn1cc[n+](C)c1.F[B-](F)(F)F
Settings | excess molar enthalpy [kcal/mol] | mass density [kg/m3]
[1], 293.14 K, x2 = 0 | – | 1389.7
[1], 293.14 K, x2 = 0.755 | – | 1299.6
[1], 293.15 K, x2 = 0.099 | – | 1373.3
[1], 293.16 K, x2 = 0.305 | – | 1340.6
[1], 293.17 K, x2 = 0.5164 | – | 1318.4
[1], 303.16 K, x2 = 0.5164 | – | 1308.9
[1], 303.17 K, x2 = 0.099 | – | 1359.1
[1], 303.17 K, x2 = 0.755 | – | 1291.3
[1], 303.18 K, x2 = 0.305 | – | 1329.4
[1], 303.19 K, x2 = 0 | – | 1372.4
[1], 313.15 K, x2 = 0 | – | 1354.8
[1], 313.15 K, x2 = 0.099 | – | 1344.7
[1], 313.16 K, x2 = 0.305 | – | 1318.4
[1], 313.16 K, x2 = 0.755 | – | 1282.9
[1], 313.19 K, x2 = 0.5164 | – | 1299.3
[1], 323.12 K, x2 = 0.099 | – | 1330.5
[1], 323.14 K, x2 = 0.5164 | – | 1290.2
[1], 323.15 K, x2 = 0 | – | 1336.6
[1], 323.15 K, x2 = 0.305 | – | 1307.3
[1], 323.2 K, x2 = 0.755 | – | 1274.7
[1], 333.14 K, x2 = 0.755 | – | 1266.8
[1], 333.15 K, x2 = 0 | – | 1317.8
[1], 333.15 K, x2 = 0.5164 | – | 1281.1
[1], 333.16 K, x2 = 0.305 | – | 1296.4
[1], 333.2 K, x2 = 0.099 | – | 1315.8
[2], 298.15 K, x2 = 0.0555 | 0.0929 | –
[2], 298.15 K, x2 = 0.1114 | 0.15 | –
[2], 298.15 K, x2 = 0.1904 | 0.256 | –
[2], 298.15 K, x2 = 0.3199 | 0.288 | –
[2], 298.15 K, x2 = 0.4137 | 0.273 | –
[2], 298.15 K, x2 = 0.4847 | 0.25 | –
[2], 298.15 K, x2 = 0.5852 | 0.208 | –
[2], 298.15 K, x2 = 0.7016 | 0.155 | –
[2], 298.15 K, x2 = 0.79 | 0.112 | –
[2], 298.15 K, x2 = 0.9039 | 0.0506 | –
[2], 323.15 K, x2 = 0.0555 | 0.0535 | –
[2], 323.15 K, x2 = 0.1114 | 0.0933 | –
[2], 323.15 K, x2 = 0.1904 | 0.172 | –
[2], 323.15 K, x2 = 0.2477 | 0.181 | –
[2], 323.15 K, x2 = 0.3199 | 0.185 | –
[2], 323.15 K, x2 = 0.4137 | 0.171 | –
[2], 323.15 K, x2 = 0.4847 | 0.155 | –
[2], 323.15 K, x2 = 0.5852 | 0.126 | –
[2], 323.15 K, x2 = 0.7016 | 0.0908 | –
[2], 323.15 K, x2 = 0.79 | 0.0632 | –
[2], 323.15 K, x2 = 0.9216 | 0.0233 | –

CCCCn1cc[n+](C)c1.F[B-](F)(F)F [1-butyl-3-methylimidazolium tetrafluoroborate]
[3]
Settings | mass density [kg/m3]
283.15 K | 1213.3
293.15 K | 1205.9
303.15 K | 1198.6
313.15 K | 1191.4
323.15 K | 1184.4
333.15 K | 1177.4

CCCCn1cc[n+](C)c1.F[B-](F)(F)F [1-butyl-3-methylimidazolium tetrafluoroborate] + OCC(F)(F)F
[1], x1 = 1
Settings | mass density [kg/m3]
283.15 K | 1213.3
293.15 K | 1205.9
303.15 K | 1198.6
313.15 K | 1191.4
323.15 K | 1184.4
333.15 K | 1177.4

CCn1cc[n+](C)c1.F[B-](F)(F)F [1-ethyl-3-methylimidazolium tetrafluoroborate]
[3]
Settings | mass density [kg/m3]
293.1 K | 1284.3
303.11 K | 1276.5
313.15 K | 1269.2
323.14 K | 1261.8
333.23 K | 1254.6

OCC(F)(F)F [2,2,2-trifluoroethanol]
[3]
Settings | mass density
283.15 K | 1408.2 kg/m3
293.14 K | 1389.7 kg/m3
293.15 K | 1391.1 kg/m3
303.15 K | 1373.8 kg/m3
303.19 K | 1372.4 kg/m3
313.15 K | 1356.1 kg/m3 and 1354.8 kg/m3
323.15 K | 1338 kg/m3 and 1336.6 kg/m3
333.15 K | 1317.8 kg/m3 and 1319.1 kg/m3

CCn1cc[n+](C)c1.F[B-](F)(F)F [1-ethyl-3-methylimidazolium tetrafluoroborate] + OCC(F)(F)F
[1], x1 = 1
Settings | mass density [kg/m3]
293.1 K | 1284.3
303.11 K | 1276.5
313.15 K | 1269.2
323.14 K | 1261.8
333.23 K | 1254.6

— the NIST ThermoML archive (doi:10.1021/je100693c)
